Measurements as given in US10646469B2, “Substituted indole derivatives as dengue viral replication inhibitors” (Janssen Pharmaceuticals, Inc., priority 2016, dated 2020).

How the values were obtained:
[1] = tested on: DENV-2 16681 strain; experiment: DENV-2 antiviral assay (eGFP-labeled virus in Vero cells); type: cell-based, Dengue virus; conditions: DENV-2 16681 eGFP, MOI 0.5, 3 days
Experimental: The antiviral activity of all the compounds of the invention was tested against the DENV-2 16681 strain which was labeled with enhanced green fluorescent protein (eGPF). The culture medium consists of minimal essential medium supplemented with 2% of heat-inactivated fetal calf serum, 0.04% gentamycin (50 mg/mL) and 2 mM of L-glutamine. Vero cells, obtained from ECACC, were suspended in culture medium and 25 μL was added to 384-well plates (2500 cells/well), which already contain the antiviral compounds. Typically, these plates contain a 5-fold serial dilution of 9 dilution steps of the test compound at 200 times the final concentration in 100% DMSO (200 nL). […] Finally, each plate contains wells which are assigned as virus controls (containing cells and virus in the absence of compound), cell controls (containing cells in the absence of virus and compound) and medium controls (containing medium in the absence of cells, virus and compounds). To the wells assigned as medium control, 25 μL of culture medium was added instead of Vero cells. Once the cells were added to the plates, the plates were incubated for 30 minutes at room temperature to allow the cells to distribute evenly within the wells. Next, the plates were incubated in a fully humidified incubator (37° C., 5% CO2) until the next day. Then, DENV-2 strain 16681, labeled with eGFP, was added at a multiplicity of infection (MOI) of 0.5. Therefore, 15 μL of virus suspension was added to all the wells containing test compound and to the wells assigned as virus control. In parallel, 15 μL of culture medium was added to the medium and cell controls. Next, the plates were incubated for 3 days in a fully humidified incubator (37° C., 5% CO2). At the day of the read out, the eGFP fluorescence was measured using an automated fluorescence microscope at 488 nm (blue laser). Using an in-house LIMS system, inhibition dose response curves for each compound were calculated and the half maximal effective concentration (EC50) was determined. Therefore, the percent inhibition (I) for every test concentration is calculated using the following formula: I=100*([…])/(SVC−SCC); ST, SCC and SVC are the amount of eGFP signal in the test compound, cell control and virus control wells, respectively. The EC50 represents the concentration of a compound at which the virus replication is inhibited with 50%, as measured by a 50% reduction of the eGFP fluorescent intensity compared to the virus control. The EC50 is calculated using linear interpolation (Table 1).

[2] = tested on: Vero cells; experiment: Toxicity on the same plates (ATPlite cell viability); conditions: Vero cells, same plates as DENV-2 antiviral assay
[3] = as above; conditions: African green monkey, CC50, Vero cells, same plates as DENV-2 antiviral assay
[4] = Dengue virus, DENV2, Vero, 72 h

Compound | EC50 [1] [nM] | CC50 [2] [µM] | EC50 [1, 4] [nM] | CC50 [3] [µM]
COc1cc(NC(C(=O)c2c[nH]c3cc(OC)c(OC(F)(F)F)cc23)c2ccc(F)cc2OC)cc(OCCO)c1 (single isomer, unassigned) [Compound 6B, 2-(4-fluoro-2-methoxyphenyl)-2-((3-(2-hydroxyethoxy)-5-methoxyphenyl)amino)-1-(6-methoxy-5-(trifluoromethoxy)-1H-indol-3-yl)ethanone] | 98 | 10 |  | 
COc1cc(NC(C(=O)c2c[nH]c3cc(F)c(C(F)(F)F)cc23)c2ccc(F)cc2OC)cc(OCCO)c1 (single isomer, unassigned) [Compound 3B, 2-(4-fluoro-2-methoxyphenyl)-1-(6-fluoro-5-(trifluoromethyl)-1H-indol-3-yl)-2-((3-(2-hydroxyethoxy)-5-methoxyphenyl)amino)ethanone] | 15 | 7.8 |  | 
COc1cc(NC(C(=O)c2c[nH]c3c(C)cc(C(F)(F)F)cc23)c2ccc(F)cc2OC)cc(OCCO)c1 (racemic) [Compound 4, 2-(4-fluoro-2-methoxyphenyl)-2-((3-(2-hydroxyethoxy)-5-methoxyphenyl)amino)-1-(7-methyl-5-(trifluoromethyl)-1H-indol-3-yl)ethanone] |  |  | 0.62 | 6.1
COc1cc(NC(C(=O)c2c[nH]c3cc(F)c(OC(F)(F)F)cc23)c2ccc(F)cc2OC)cc(OCCO)c1 (single isomer, unassigned) [Compound 7A, 2-(4-fluoro-2-methoxyphenyl)-1-(6-fluoro-5-(trifluoromethoxy)-1H-indol-3-yl)-2-((3-(2-hydroxyethoxy)-5-methoxyphenyl)amino)ethanone] | 25 | 6.7 |  | 
COc1cc(NC(C(=O)c2c[nH]c3c(C)cc(OC(F)(F)F)cc23)c2ccc(F)cc2OC)cc(OCCO)c1 (racemic) [Compound 8, 2-(4-fluoro-2-methoxyphenyl)-2-((3-(2-hydroxyethoxy)-5-methoxyphenyl)amino)-1-(7-methyl-5-(trifluoromethoxy)-1H-indol-3-yl)ethanone] |  |  | 0.41 | 4.7
COc1cc(NC(C(=O)c2c[nH]c3ccc(OC(F)(F)F)cc23)c2ccc(Cl)cc2OC)cc(OCCO)c1 (single isomer, unassigned) [Compound 13B, 2-(4-chloro-2-methoxyphenyl)-2-((3-(2-hydroxyethoxy)-5-methoxyphenyl)amino)-1-(5-(trifluoromethoxy)-1H-indol-3-yl)ethanone] | 7.2 | 5.8 |  | 
COc1cc(NC(C(=O)c2c[nH]c3ccc(OC(F)(F)F)cc23)c2ccc(F)cc2OC)cc(OCCO)c1 (single isomer, unassigned) [Compound 5A, 2-(4-fluoro-2-methoxyphenyl)-2-((3-(2-hydroxyethoxy)-5-methoxyphenyl)amino)-1-(5-(trifluoromethoxy)-1H-indol-3-yl)ethanone] | 30 |  |  | 5.4
COc1cc(NC(C(=O)c2c[nH]c3cc(F)c(C(F)(F)F)cc23)c2ccc(Cl)cc2OC)cc(OCCO)c1 (single isomer, unassigned) [Compound 11B, 2-(4-chloro-2-methoxyphenyl)-1-(6-fluoro-5-(trifluoromethyl)-1H-indol-3-yl)-2-((3-(2-hydroxyethoxy)-5-methoxyphenyl)amino)ethanone] | 15 | 2.7 |  | 
COc1cc(NC(C(=O)c2c[nH]c3c(C)cc(OC(F)(F)F)cc23)c2ccc(F)cc2OC)cc(OCCO)c1 (single isomer, unassigned) [Compound 8B, 2-(4-fluoro-2-methoxyphenyl)-2-((3-(2-hydroxyethoxy)-5-methoxyphenyl)amino)-1-(7-methyl-5-(trifluoromethoxy)-1H-indol-3-yl)ethanone] | 31 | 6 |  | 
COc1cc(NC(C(=O)c2c[nH]c3ccc(C(F)(F)F)cc23)c2ccc(F)cc2OC)cc(OCCO)c1 (single isomer, unassigned) [Compound 1A, 2-(4-fluoro-2-methoxyphenyl)-2-((3-(2-hydroxyethoxy)-5-methoxyphenyl)amino)-1-(5-(trifluoromethyl)-1H-indol-3-yl)ethanone] | 64 | 6.8 |  | 
COc1cc(NC(C(=O)c2c[nH]c3ccc(C(F)(F)F)cc23)c2ccc(Cl)cc2OC)cc(OCCO)c1 (single isomer, unassigned) [Compound 9A, 2-(4-chloro-2-methoxyphenyl)-2-((3-(2-hydroxyethoxy)-5-methoxyphenyl)amino)-1-(5-(trifluoromethyl)-1H-indol-3-yl)ethanone] | 12 |  |  | 3.5
COc1cc(NC(C(=O)c2c[nH]c3c(C)cc(C(F)(F)F)cc23)c2ccc(Cl)cc2OC)cc(OCCO)c1 (single isomer, unassigned) [Compound 12B, 2-(4-chloro-2-methoxyphenyl)-2-((3-(2-hydroxyethoxy)-5-methoxyphenyl)amino)-1-(7-methyl-5-(trifluoromethyl)-1H-indol-3-yl)ethanone] | 38 | 11 |  | 
COc1cc(NC(C(=O)c2c[nH]c3cc(OC)c(C(F)(F)F)cc23)c2ccc(Cl)cc2OC)cc(OCCO)c1 (racemic) [Compound 10, 2-(4-chloro-2-methoxyphenyl)-2-((3-(2-hydroxyethoxy)-5-methoxyphenyl)amino)-1-(6-methoxy-5-(trifluoromethyl)-1H-indol-3-yl)ethanone] |  |  | 0.27 | 3.2
COc1cc(NC(C(=O)c2c[nH]c3cc(OC)c(OC(F)(F)F)cc23)c2ccc(Cl)cc2OC)cc(OCCO)c1 (single isomer, unassigned) [Compound 14B, 2-(4-chloro-2-methoxyphenyl)-2-((3-(2-hydroxyethoxy)-5-methoxyphenyl)amino)-1-(6-methoxy-5-(trifluoromethoxy)-1H-indol-3-yl)ethanone] | 7.2 | 5.4 |  | 
COc1cc(NC(C(=O)c2c[nH]c3cc(OC)c(OC(F)(F)F)cc23)c2ccc(Cl)cc2OC)cc(OCCO)c1 (racemic) [Compound 14, 2-(4-chloro-2-methoxyphenyl)-2-((3-(2-hydroxyethoxy)-5-methoxyphenyl)amino)-1-(6-methoxy-5-(trifluoromethoxy)-1H-indol-3-yl)ethanone] |  |  | 0.34 | 3.5
COc1cc(NC(C(=O)c2c[nH]c3cc(OC)c(C(F)(F)F)cc23)c2ccc(F)cc2OC)cc(OCCO)c1 (single isomer, unassigned) [Compound 2B, 2-(4-fluoro-2-methoxyphenyl)-2-((3-(2-hydroxyethoxy)-5-methoxyphenyl)amino)-1-(6-methoxy-5-(trifluoromethyl)-1H-indol-3-yl)ethanone] | 24 | 6.8 |  | 
COc1cc(NC(C(=O)c2c[nH]c3c(C)cc(C(F)(F)F)cc23)c2ccc(F)cc2OC)cc(OCCO)c1 (single isomer, unassigned) [Compound 4A, 2-(4-fluoro-2-methoxyphenyl)-2-((3-(2-hydroxyethoxy)-5-methoxyphenyl)amino)-1-(7-methyl-5-(trifluoromethyl)-1H-indol-3-yl)ethanone] | 63 | 11 |  | 
COc1cc(NC(C(=O)c2c[nH]c3c(C)cc(OC(F)(F)F)cc23)c2ccc(Cl)cc2OC)cc(OCCO)c1 (single isomer, unassigned) [Compound 16B, 2-(4-chloro-2-methoxyphenyl)-2-((3-(2-hydroxyethoxy)-5-methoxyphenyl)amino)-1-(7-methyl-5-(trifluoromethoxy)-1H-indol-3-yl)ethanone] | 15 | 3.6 |  | 
